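These data come from cells grown in 96-well plates and exposed to compound for 48 hours at five concentrations. At the TGI there is no net growth.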
What was measured:
Assay in all cases: DTP human tumour cell line panel, 48 h
OVCAR-5 ovarian = system: OVCAR-5 ovarian
SNB-75 CNS = system: SNB-75 CNS
HCT-15 colon = system: HCT-15 colon
UACC-257 melanoma = system: UACC-257 melanoma
SK-OV-3 ovarian = system: SK-OV-3 ovarian
HL-60(TB) leukemia = system: HL-60(TB) leukemia
NCI-H522 lung = system: NCI-H522 lung
ACHN renal = system: ACHN renal
LOX IMVI melanoma = system: LOX IMVI melanoma
T-47D breast = system: T-47D breast

Structure (SMILES) | TGI (OVCAR-5 ovarian) | TGI (SNB-75 CNS) | TGI (HCT-15 colon) | TGI (UACC-257 melanoma) | TGI (SK-OV-3 ovarian) | TGI (HL-60(TB) leukemia) | TGI (NCI-H522 lung) | TGI (ACHN renal) | TGI (LOX IMVI melanoma) | TGI (T-47D breast)
CN(C)CCCC12CCCCC1=Nc1ccccc12 (stereo not given) | > 100 µM | > 100 µM | > 100 µM | > 100 µM | > 100 µM | 76.3 µM | > 100 µM | > 100 µM | > 100 µM | > 100 µM
Cc1cc(S(=O)(=O)Nc2n[nH]c(N)n2)c(SCC(=O)O)cc1Cl | > 10 µM | > 10 µM | > 10 µM | > 10 µM | > 10 µM | > 10 µM | > 10 µM | > 10 µM | > 10 µM | > 10 µM
Cc1nc2c(nc1C)-c1[nH]c3c(c1C(=O)C2=O)CCCC3=O | 4.7 µM | 3.31 µM | 8.08 µM | 4.83 µM | 6.87 µM | 5.78 µM | 4.42 µM | 7.35 µM | 2.87 µM | 0.709 µM
CCC(C)OC(=O)/C(Br)=C1/OC(=O)c2ccccc2-c2ccccc21 (stereo not given) | > 100 µM | > 100 µM | 38.5 µM | > 100 µM | > 100 µM | > 100 µM | 44.3 µM | > 100 µM | 68.2 µM | > 100 µM
C[C@H](CCC(=O)O)[C@H]1CC[C@H]2[C@@H]3CC[C@@H]4C[C@H](O)CC[C@]4(C)[C@H]3C[C@H](O)[C@]12C | > 100 µM | > 100 µM | > 100 µM | > 100 µM | 78.1 µM | 67.1 µM | 86.7 µM | > 100 µM | > 100 µM | 91.2 µM
Fc1cc(-c2cc(-c3ccccc3)no2)c(Cl)cc1Cl | > 42.9 µM | > 54.4 µM | > 68.4 µM | > 71.6 µM | > 50.3 µM | > 37.7 µM | > 34.5 µM | > 59.6 µM | > 21.2 µM | > 57.7 µM
CC(=O)c1[nH]c(NCc2ccccc2)c(C(=S)Nc2ccccc2)c1N | 55.1 µM | > 100 µM | 39.9 µM | 49.2 µM | > 100 µM | 35.3 µM | 0.166 µM | 85.2 µM | 32.8 µM | 63.3 µM
COc1cc(C2c3cc4c(cc3OC3(OC)COC(=O)C23)OCO4)cc(OC)c1OC(C)=O (stereo not given) | > 41.4 µM | > 62.9 µM | > 100 µM | > 100 µM | > 100 µM | 12.8 µM | 2.43 µM | > 100 µM | > 82.2 µM | > 100 µM
CCOC(=O)C12OC(CCC1=O)C(C(=O)OC)=C2C(=O)OC (stereo not given) | > 10 µM | > 10 µM | > 10 µM | > 10 µM | > 10 µM | > 10 µM | > 10 µM | > 10 µM | > 10 µM | > 10 µM
Nc1nc(N)c2c3c(cnc2n1)CC(c1ccccc1)CC3 (stereo not given) | > 100 µM | 35.9 µM | > 100 µM | > 100 µM | 63 µM | 24.8 µM | 35.9 µM | 31.7 µM | 21.6 µM | 56.8 µM
COC(=O)C1=C(C(=O)NNc2ccccc2)N(c2cccnc2Cl)C(c2ccccc2)=CC1c1ccccc1 (stereo not given) | > 100 µM | > 100 µM | > 100 µM | > 100 µM | > 100 µM | > 100 µM | > 100 µM | > 100 µM | > 100 µM | > 100 µM
COc1ccc(C(OCC2OC(n3cc(C)c(=O)[nH]c3=O)CC2n2cc(Cn3cc(Cl)c(=O)[nH]c3=O)nn2)(c2ccccc2)c2ccccc2)cc1 (stereo not given) | > 100 µM | > 100 µM | > 100 µM | > 100 µM | > 100 µM | 6.99 µM | > 100 µM | > 100 µM | > 100 µM | > 100 µM
CC#CCOC(=O)c1ccccc1OC(C)=O | > 100 µM | > 100 µM | > 100 µM | > 100 µM | > 100 µM | > 100 µM | > 100 µM | > 100 µM | > 100 µM | > 100 µM
Cc1[nH]nc(C(F)(F)F)c1N=NN1CCOCC1 | 41.7 µM | 26.7 µM | 25.8 µM | 24.4 µM | 31.7 µM | 6.18 µM | 8.7 µM | 17.7 µM | 18.3 µM | > 42.8 µM
COC(=O)C(Cc1c[nH]c2ccccc12)NP(=O)(O)OCC1OC(n2cc(I)c(=O)[nH]c2=O)CC1O (stereo not given) | > 100 µM | > 100 µM | > 100 µM | > 100 µM | > 100 µM | > 100 µM | > 100 µM | > 100 µM | > 100 µM | > 100 µM
